Measurements taken from patent US12527788B2, “Defining RNA-small molecule affinity landscapes enables design of a small molecule inhibitor of an oncogenic non-coding RNA” (University of Florida Research Foundation, Incorporated, priority 2017, dated 2026).
Entries after “also recorded” stand apart in the source; their conditions may differ.

What was measured:
pre-miR-17 = test: In vitro Dicer inhibition assay; assay type: biochemical, human; settings: low micromolar concentrations
Procedure: (§1) Initial studies were completed in vitro to determine if compound 4 (Targapremir-18a) inhibits Dicer processing of each miRNA separately in the miR-17-92 cluster using radioactively labeled RNA (FIG. 8A). […] Thus, inhibition of Dicer processing by 4 is selective for miR-17, -18a, and -20a and non-selective inhibition of Dicer processing is not observed.
(§2) Dicer Inhibition Assay: The template used for pre-miR-18a (5′-[…] GCTCCTTCTGGCA) (SEQ ID NO: 41) was PCR-amplified in 1×PCR Buffer, 2 μM forward primer (5′-[…]-AAGGTGCATCTAGTGCAGA) (SEQ ID NO: 42), 2 μM reverse primer (5′-[…]) (SEQ ID NO: 43), 4.25 mM MgCl2, 330 μM dNTPs, and 2 μL of Taq DNA polymerase in a 50 μL reaction. Cycling conditions were 95° C. for 30 s, 55° C. for 30 s, and 72° C. for 60 s. […] The samples was then supplemented with 1 mM ATP and 2.5 mM MgCl2. Serially diluted concentrations of 4 were added and the samples were incubated at room temperature for 15 min. Next, 0.005 units/μL of recombinant human Dicer (Genlantis) were added followed by incubation at 37° C. overnight. Reactions were stopped by adding the manufacturer's supplied stop solution.
(§3) A T1 ladder (cleaves G residues) was generated by heating the RNA in 1×RNA Sequencing Buffer (20 mM sodium citrate, pH 5.0, 1 mM EDTA, and 7 M urea) at 55° C. for 10 min followed by slowly cooling to room temperature. RNase T1 was then added to a final concentration of 3, 0.3, 0.03 units/μL and the solution was incubated at room temperature for 20 min. An RNA hydrolysis ladder was generated by incubating RNA in 1×RNA hydrolysis buffer (50 mM NaHCO3, pH 9.4, and 1 mM EDTA) at 95° C. for 5 min. In all cases, cleavage products were separated on a denaturing 15% polyacrylamide gel and imaged using a Bio-Rad PMI phosphorimager.

pre-miR-20 = test: In vitro Dicer inhibition assay; assay type: biochemical, human; settings: low micromolar concentrations
Procedure: as §1, §2, §3

pre-miR-19b = test: In vitro Dicer inhibition assay; assay type: biochemical, human
Procedure: as §1, §2, §3

pre-miR-19a = test: In vitro Dicer inhibition assay; assay type: biochemical, human
Procedure: as §1, §2, §3

pre-miR-18a = test: In vitro Dicer inhibition assay; assay type: biochemical, human; settings: low micromolar concentrations
Procedure: as §1, §2, §3

mature miR-18a = test: RT-qPCR of mature miRNA levels in DU145 cells; assay type: cell-based; settings: Homo sapiens, DU-145, read-out: IC50 for decrease of mature miRNA
Procedure: (§4) In particular, the mature levels of each miRNA in the cluster were studied by RT-qPCR. In agreement with our in vitro Dicer processing studies (FIG. 8A and Figures S-58-S-62), 4 decreases the amount of mature miR-17, -18a, and -20a at low micromolar concentrations with an IC50 of ˜10 µM, but has no effect on miR-19a, -19b, and -92a (FIG. 8B).
(§5) Cell Culture: DU145 cells were cultured in growth medium (Roswell Park Memorial Institute medium (RPMI) supplemented with 10% fetal bovine serum (FBS)) at 37° C. and 5% CO2
(§6) Total RNA was extracted from cells using a Quick-RNA Miniprep Kit (Zymo Research) per the manufacturer's protocol. Approximately 200 ng of total RNA was used in reverse transcription (RT) reactions, which were completed using a miScript II RT kit (Qiagen) per the manufacturer's protocol. RT-qPCR was performed on a 7900HT Fast Real Time PCR System (Applied Biosystem) using power SYBR Green Master Mix (Applied Biosystems). All primer sets were purchased from Integrated DNA Technologies, Inc. (IDT) or Eurofins (Table S1). The expression levels of mature miRNAs were normalized to U6 small nuclear RNA or 18s rRNA.

mature miR-17 = test: RT-qPCR of mature miRNA levels in DU145 cells; assay type: cell-based; settings: Homo sapiens, DU-145, read-out: IC50 for decrease of mature miRNA
Procedure: as §4, §5, §6

mature miR-20a = test: RT-qPCR of mature miRNA levels in DU145 cells; assay type: cell-based; settings: Homo sapiens, DU-145, read-out: IC50 for decrease of mature miRNA
Procedure: as §4, §5, §6

selected RNA motifs = test: In solution fluorescence-based binding affinity measurement; settings: read-out: Average Kd of Selected RNA Binders
Procedure: Bound RNA motifs for each compound were harvested from the array surface, amplified, and identified by using high throughput sequencing (RNA-seq). Highly abundant RNAs in the sequencing data were then subjected to binding measurements. Typically, those RNAs that were highly enriched bound to the small molecules with affinities (Kds) that ranged from 1 to 10 μM (FIG. 2 and Table 1) while binding to the starting libraries was not saturable. These affinities are promising for binding RNA, as it has been difficult to acquire low micromolar affinity with compounds of this low molecular weight. In fact, RNAs that have undergone Darwinian evolution to bind small molecules, namely riboswitches, often bind their cognate ligand at […] concentrations;^30-33 bioactive compounds that mimic riboswitch ligands bind with similar affinities.^30,34
Binding Affinity Measurements: An in solution, fluorescence-based assay was used to determine binding affinities by monitoring the change in fluorescence intensity of 1-FL (or 2-FL/3-FL/4-FL) as a function of RNA concentration as described previously.^18 Briefly, the RNA of interest was folded in 1× Folding Buffer (8 mM Na2HPO4, pH 7.0, 185 mM NaCl and 1 mM EDTA) by heating at 60° C. for 5 min followed by slowly cooling to room temperature on the bench top. Then, the FL-conjugated compound was added into the RNA solution to a final concentration of 100 nM. Serial dilutions were then completed using 1× Folding Buffer supplemented with 100 nM FL-conjugated compound. The solutions were incubated at room temperature for 30 min and then transferred to a well of a black 384-well plate. Fluorescence intensity was measured using a Bio-Tek FL×800 plate reader with an excitation wavelength of 485/20 nm and an emission wavelength of 528/20 nm. The change in fluorescence intensity as a function of the concentration of RNA was fit to equation 3:^9 I=I0+0.5 Δε{([FL]0+[RNA]0 +Kd)−(([FL]0+[RNA]0+Kd)^2−4[FL]0[RNA]0)^1/2} (3) where I is the observed fluorescence intensity; I0 is the fluorescence intensity in the absence of RNA; Δε is the difference between the fluorescence intensity in the absence of RNA and in the presence of infinite RNA concentration; [FL]0 is the concentration of compound; [RNA]0 is the concentration of the selected RNA; and Kd is the dissociation constant.

CN1CCN(c2ccc(-c3ccc4nc(-c5cc(C(C)(C)C)c(OCCCC(=O)NCCCN=[N+]=[N-])c(C(C)(C)C)c5)[nH]c4c3)cc2)CC1 [Compound 4]
Inhibition of Dicer processing (pre-miR-17): inhibited Dicer processing | Inhibition of Dicer processing (pre-miR-20): inhibited Dicer processing | Effect on Dicer processing (pre-miR-19b): no effect | Effect on Dicer processing (pre-miR-19a): no effect | Inhibition of Dicer processing (pre-miR-18a): inhibits in vitro Dicer processing; also recorded: inhibited Dicer processing | IC50 (mature miR-18a): ~10 µM | IC50 (mature miR-17): ~10 µM | IC50 (mature miR-20a): ~10 µM | Kd (selected RNA motifs): 11 ± 2 µM
